A word on the IC50: it is the concentration that inhibits the measured activity by half.

The values below come from patent US20250154154A1 (Relay Binney Street, 2nd Floor, priority 2020, published 2025).

The target in this experiment is SRC (Homo sapiens, UniProt P12931). Description: SRC Biochemical Assay Protocol (microfluidic mobility shift assay, FLPeptide4 substrate). Here is the method: SRC Biochemical Assay Protocol
SRC, sequence (P12931 whole entry, species assumed): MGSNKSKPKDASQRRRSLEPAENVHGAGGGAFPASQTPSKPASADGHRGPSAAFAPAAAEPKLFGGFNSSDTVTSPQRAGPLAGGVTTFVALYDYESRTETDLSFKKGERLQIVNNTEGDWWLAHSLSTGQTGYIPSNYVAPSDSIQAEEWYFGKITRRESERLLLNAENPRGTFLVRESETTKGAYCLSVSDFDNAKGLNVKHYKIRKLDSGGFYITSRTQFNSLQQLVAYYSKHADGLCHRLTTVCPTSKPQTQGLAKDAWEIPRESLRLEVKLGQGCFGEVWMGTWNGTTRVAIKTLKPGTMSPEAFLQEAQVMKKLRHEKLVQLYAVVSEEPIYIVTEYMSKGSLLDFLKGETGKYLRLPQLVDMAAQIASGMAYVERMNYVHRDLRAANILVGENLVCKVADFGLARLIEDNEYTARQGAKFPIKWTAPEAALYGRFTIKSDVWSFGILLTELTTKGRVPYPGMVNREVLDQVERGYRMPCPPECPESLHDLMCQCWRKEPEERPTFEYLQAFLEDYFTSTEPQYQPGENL
Src biochemical kinase activity was measured using a surrogate fluorescent peptide substrate [FLPeptide4; 5-FAM-EGIYGVLFKKK-CONH2 (PerkinElmer Cat. No. 760348)] with a microfluidic mobility shift assay. Reactions were performed in 384-well flat bottom polystyrene microplates (Corning Cat. No. 3570) at a final volume of 20 μL in 50 mM HEPES pH 7.4, 1 mM EGTA, 10 mM MgCl2, 0.01% Brij-35, 2 mM DTT, 0.05% BSA, 1% DMSO. Inhibition experiments were performed with compounds of the invention varying from 0.0017-100 μM with 0.26 nM SRC, 1.5 μM FLPeptide4, and 50 μM ATP. Specifically, 15 μl 1.3× mixtures of SRC+FLPeptide4+compounds were preincubated for 30 minutes at room temperature followed by addition of 5 μL 4×ATP. Reactions were carried out for 90 minutes then quenched with 40 μl 500 mM EDTA. Phosphorylated peptide product was measured with a mobility shift assay using a LabChip® EZ Reader system (PerkinElmer Cat. No. 122919). Inhibition ratios were calculated relative to neutral controls and IC50 values were obtained from dose response data fitted to a 4-parameter logistic model.
`CC(C)n1c(C#CC2CCC(N)CC2)c(-c2ccc(Oc3ccccc3)cc2)c2c(N)ncnc21` (centres unmarked) [II-151, 6-((4-aminocyclohexyl)ethynyl)-7-isopropyl-5-(4-phenoxyphenyl)-7H-pyrrolo[2,3-d]pyrimidin-4-amine]: the IC50 is at most 10 nM. On to `CN(C)C/C=C/C(=O)N1CCC(O)(C#Cc2c(-c3ccc(Oc4ccccc4)cc3)c3c(N)ncnc3n2C)CC1` [III-16], for which the IC50 was 10 to 1000 nM. Under `CC(C)n1c(C#CC2CCC(NC(=O)CCl)CC2)c(-c2ccc(Oc3ccccc3)cc2)c2c(N)ncnc21` (centres unmarked) [Example I-38] stands 10 to 1000 nM. On to `CC(CO)n1c(C#CC2(O)CCN(C(=O)/C=C/CN(C)C)CC2)c(-c2ccc(Oc3ccccc3)cc2)c2c(N)ncnc21` (centres unmarked) [III-27], for which the IC50 lay within 10 to 1000 nM.

Turning to `C=CC(=O)N1CCC(O)(C#Cc2c(-c3ccc(Oc4ccccc4)c(C#N)c3)c3c(N)ncnc3n2C)CC1` [III-54], the IC50 fell in the range of 1000 to 10000 nM. With `C=CC(=O)N1CC[C@H](N2CC(C#Cc3c(-c4ccc(Oc5ccccc5)cc4)c4c(N)ncnc4n3C)C2)[C@@H](C)C1` [III-69], the IC50 lay in the range of 10 to 1000 nM. Under `C=CC(=O)N1CCC(C#Cc2c(-c3ccc(Oc4ccccn4)cc3)c3c(N)ncnc3n2C(C)C)CC1` [Example I-12] stands 10 to 1000 nM; under `CC(C)n1c(C#CC2CCNC2)c(-c2ccc(Oc3ccccc3)cc2)c2c(N)ncnc21` (centres unmarked) [II-157, 7-isopropyl-5-(4-phenoxyphenyl)-6-(pyrrolidin-3-ylethynyl)-7H-pyrrolo[2,3-d]pyrimidin-4-amine], at most 10 nM. As for `C=CC(=O)N1C[C@@H]2[C@@H](C#Cc3c(-c4ccc(Oc5cccc(C)n5)c(OC)c4)c4c(N)nccc4n3CCOC)[C@@H]2C1` [II-78], the IC50 lay within 1000 to 10000 nM. The result for `CC(C)n1c(C#CC2(O)CCN(C(=O)/C=C/CN(C)C)CC2)c(-c2ccc(Oc3ccccc3)cc2)c2c(N)ncnc21` [III-24] reads at most 10 nM; that for `C=CC(=O)N[C@@H](C)C(=O)N1CCC(C#Cc2c(-c3ccc(Oc4ccccc4)cc3)c3c(N)ncnc3n2C)CC1` [III-45], at most 10 nM; that for `C=C(C)C(=O)N1CCC(C#Cc2c(-c3ccc(Oc4ccccc4)cc3)c3c(N)ncnc3n2[C@H]2CCOC2)CC1` [III-37], 10 to 1000 nM.

As for `C=CC(=O)N1CCC(N2CC(C#Cc3c(-c4ccc(Oc5nnc(C)o5)c(OC)c4)c4c(N)ncnc4n3C)C2)CC1` [III-89], the IC50 lay in the range of 10 to 1000 nM. The result for `C=CC(=O)N1CC(N2CCC(C#Cc3c(-c4ccc(Nc5ccccn5)cc4)c4c(N)ncnc4n3C(C)C)CC2)C1` [Example I-46] reads 10 to 1000 nM; that for `CN(C)C/C=C/C(=O)Nc1ncnc2c1c(-c1ccc(Oc3ccccc3)cc1)c(C#CC1CNC1)n2C1CCOC1` (centres unmarked) [III-9], 10 to 1000 nM; that for `C=CC(=O)N[C@H]1CC[C@@H](C#Cc2c(-c3ccc(Oc4ccccc4)cc3)c3c(N)ncnc3n2C)CC1` [III-57], 10 to 1000 nM. As for `C=CC(=O)N1CC[C@@H](N2CC(C#Cc3c(-c4ccc(Oc5ccccc5)cc4)c4c(N)ncnc4n3C)C2)[C@H](C)C1` [III-66], the IC50 fell in the range of 10 to 1000 nM. Under `C=CC(=O)N1CCC(N2CCC(C#Cc3c(-c4ccc(Oc5ccccc5)cc4)c4c(N)ncnc4n3C)C2)CC1` (centres unmarked) [III-73] stands 10 to 1000 nM; under `C=CC(=O)N[C@H]1CC[C@H](C#Cc2c(-c3ccc(Oc4ccccc4)cc3)c3c(N)ncnc3n2C)CC1` [III-58], 10 to 1000 nM; under `CC(C(N)=O)N1CCC(C#Cc2c(-c3ccc(Oc4ccccc4)cc3)c3c(N)ncnc3n2C(C)C)CC1` (centres unmarked) [II-150, 2-(4-((4-amino-7-isopropyl-5-(4-phenoxyphenyl)-7H-pyrrolo[2,3-d]pyrimidin-6-yl)ethynyl)piperidin-1-yl)propanamide], 10 to 1000 nM.

With `CN(C)C/C=C/C(=O)N1CCC(C#Cc2c(-c3ccc(Oc4ccccc4)cc3)c3c(N)ncnc3n2C2CCOC2)C1` (centres unmarked) [III-18], the IC50 lay within 10 to 1000 nM. The result for `C=CC(=O)N1CCC(C#Cc2c(-c3ccc(Oc4ccccc4)cc3)c3c(N)ncnc3n2C)C1` (centres unmarked) [III-11] reads 10 to 1000 nM; that for `CN(C)C/C=C/C(=O)N1CCC(C#Cc2c(-c3ccc(Oc4ccccc4)cc3)c3c(N)ncnc3n2C)C1` (centres unmarked) [III-22], 10 to 1000 nM.
